The text below walks through data of BindingDB's records for doi:10.1021/jm101011y (University of Basel, 2010).

This test can be described thus: Antagonist activity at Escherichia coli UT189 FimH in guinea pig red blood cells assessed as disaggregation of bacteria after 600 secs by aggregometry assay.
A word on the IC50: it is the concentration needed to halve the response being measured. In the case of `O=C(O)c1ccc(-c2cccc(O[C@H]3O[C@H](CO)[C@@H](O)[C@H](O)[C@@H]3O)c2)cc1`, the IC50 is 45 µM.
To `COC(=O)c1ccc(-c2ccc(Cl)c(O[C@H]3O[C@H](CO)[C@@H](O)[C@H](O)[C@@H]3O)c2)cc1` belongs 31 µM; to `O=C(O)c1ccc(-c2ccc(O[C@H]3O[C@H](CO)[C@@H](O)[C@H](O)[C@@H]3O)cc2)cc1`, 45 µM.
As to `O=C(O)c1ccc(-c2ccc(O[C@H]3O[C@H](CO)[C@@H](O)[C@H](O)[C@@H]3O)cc2Cl)cc1`, the IC50 amounted to 17 µM.
To `O=C(O)c1ccc(-c2ccc(O[C@H]3O[C@H](CO)[C@@H](O)[C@H](O)[C@@H]3O)c(Cl)c2)cc1` belongs 10 µM.
To `COC(=O)c1ccc(-c2ccc(O[C@H]3O[C@H](CO)[C@@H](O)[C@H](O)[C@@H]3O)cc2Cl)cc1` belongs 41 µM.
To `COC(=O)c1ccc(-c2cc(Cl)c(O[C@H]3O[C@H](CO)[C@@H](O)[C@H](O)[C@@H]3O)c(Cl)c2)cc1` belongs 14 µM; to `COC(=O)c1ccc(-c2ccc(O[C@H]3O[C@H](CO)[C@@H](O)[C@H](O)[C@@H]3O)c(Cl)c2)cc1`, 9 µM.
